Reference: patent publication US20240269139A1, “COMPOUNDS FOR TARGETED PROTEIN DEGRADATION OF KINASES” (DANA-FARBER CANCER INSTITUTE, INC., priority 2020, published 2024)
“Also recorded” adds a separate entry of the source.

Target: protein kinases (human kinome)
Assay type: cell-based
Details: for Kinase hits: kinases significantly downregulated vs DMSO (fold change cutoff −1.25, P-value<0.01), ≤8 h, 0.1-5 μM degrader, 7 cell lines; for Total no. kinase hits: number of degraded kinases per library compound; for kinases the bifunctional compound degrades: as stated for the structure in the embodiments
From the text: Although development of targeted protein degraders requires a POI binder, among already-liganded proteins such as kinases, it was hypothesized that different targets would have a different propensity for current approaches to degrader-mediated destruction, which was termed ‘degradability’. […] It was rationalized that the probability of identifying the same kinase as a false positive in multiple treatments is low, therefore this analysis served to also assess the robustness of our data and subsequent interpretations. […] Overall, 62 protein kinases were degraded in more than 10 independent treatments, and remarkably, 9 of these (CDK4, AURKA, FER, WEE1, BLK. LIMK2, CDK6, GAK, LIMK1) were each degraded in at least 40 of the 154 independent treatments, emphasizing their predisposition to induced degradation (FIG. 1G; Appendix I).
Next, the frequency of degradation assessment was corrected for over-representation of molecules in the full dataset by omitting replicate profiling of compounds under different experimental conditions, to remove any bias. […] Unsurprisingly, the top degradable kinases mirror those from the previous analysis (CDK4, AURKA, FER, WEE1, BLK), confirming that in sufficiently large datasets, even with over-representation of certain molecules, frequency of degradation is a good measure of general tractability.

| Compound | Kinase hits | Total no. kinase hits | kinases the bifunctional compound degrades |
| --- | --- | --- | --- |
| Cc1c(NC(=O)c2ccc(C(C)(C)C)cc2)cccc1-c1cn(C)c(=O)c(Nc2ccc(C(=O)N3CCN(CCCCCCNC(=O)COc4cccc5c4C(=O)N(C4CCC(=O)NC4=O)C5=O)CC3)cc2)n1 (stereo not drawn) [DD-04-118] | BTK | 1 | – |
| Cc1ncsc1-c1ccc([C@H](C)NC(=O)[C@@H]2C[C@@H](O)CN2C(=O)[C@@H](NC(=O)CCCCOc2ccccc2-c2ccc3nc(-c4cccnc4N)n(-c4ccc(C5(N)CCC5)cc4)c3n2)C(C)(C)C)cc1 [INY-04-125-01] | LATS1, STK17A | 2 | LATS1 and STK17A |
| CC(C)S(=O)(=O)c1ccccc1Nc1nc(Nc2ccc(N3CCN(CCOCCOCCNC(=O)CNc4cccc5c4C(=O)N(C4CCC(=O)NC4=O)C5=O)CC3)cc2)ncc1Cl (stereo not drawn) [TL12-186] | AAK1, ABL1, AURKA, AURKB, BLK, BMPR1A, BUB1, BUB1B, CDK10, CDK12, CDK13, CDK17, CDK2, CDK4, CDK5, CDK6, CDK7, CDK9, COQ8A, COQ8B, CSNK1D, CSNK1E,; also recorded: EEF2K, FER, FLT1, GAK, HASPIN, IRAK4, ITK, LCK, LIMK1, LIMK2, MAP3K11, MAP3K21, MAP4K1, MAP4K3, MAPK6, MAPK7, MARK2, MARK4, NEK2, NLK, PDK2, PLK4, PRAG1, PRKAA1, PTK2B, RIOK2, RPS6KA1, SIK2, SRC, STK10, STK17A, STK35, TEC, TNK2, ULK1, ULK3, WEE1, YES1 | 60 | – |
| Nc1ncnc2c1c(-c1ccc(Oc3ccccc3)cc1)nn2[C@H]1CC[C@H](N2CCN(CCOCCNC(=O)CNc3cccc4c3C(=O)N(C3CCC(=O)NC3=O)C4=O)CC2)CC1 (stereo partly drawn) [SB1-G-181] | ABL1, ABL2, AURKA, BLK, CSK, CSNK1E, FYN, LATS1, LCK, LIMK1, MAP2K5, SRC | 12 | – |
| CC(=O)c1c(C)c2cnc(Nc3ccc(N4CCN(CCOCCOCCOCCNC(=O)COc5cccc6c5C(=O)N(C5CCC(=O)NC5=O)C6=O)CC4)cn3)nc2n(C2CCCC2)c1=O (stereo not drawn) [BSJ-03-123] | BCKDK, CDK4, CDK6, COQ8A, PDK1, PDK2, PDK3, WEE1 | 8 | – |
| O=C1CCC(N2C(=O)c3cccc(NCCOCCOCCOCCOCCC(=O)Nc4cccc(CN5CCC(NC(=O)c6[nH]ncc6NC(=O)c6c(Cl)cccc6Cl)CC5)c4)c3C2=O)C(=O)N1 (stereo not drawn) [FMF-04-147-1] | CDK11A, CDK9, CLK1, GSK3A, GSK3B, PIK3CG, SGK3 | 7 | CDK11A, CDK9, CLK1, GSK3A, GSK3B, PIK3CG, and SGK3 |
| CC(C)S(=O)(=O)c1ccccc1Nc1nc(Nc2ccc(N3CCN(CCOCCOCCOCCNC(=O)CNc4ccc5c(c4)C(=O)N(C4CCC(=O)NC4=O)C5=O)CC3)cc2)ncc1Cl (stereo not drawn) [SK-3-89] | AAK1, AURKA, BLK, CDK12, CDK17, CDK2, CDK4, CDK5, CDK6, CDK7, CDK9, FER, ITK, LCK, LIMK2, PTK2B, STK10, WEE1 | 18 | AAK1, AURKA, BLK, CDK12, CDK17, CDK2, CDK4, CDK5, CDK6, CDK7, CDK9, FER, ITK, LCK, LIMK2, PTK2B, STK10, and WEE1 |
| CC(=O)c1c(C)c2cnc(Nc3ccc(N4CCN(CCCCNC(=O)COc5cccc6c5C(=O)N(C5CCC(=O)NC5=O)C6=O)CC4)cn3)nc2n(C2CCCC2)c1=O (stereo not drawn) [BSJ-03-204] | CDK4, CDK6, PDK1, WEE1 | 4 | – |
| Cc1cc(S(=O)(=O)NCCOCCOCCOCCOCCNc2cccc3c2C(=O)N(C2CCC(=O)NC2=O)C3=O)ccc1Nc1ncc(Br)c(Nc2cccc(F)c2C(N)=O)n1 (stereo not drawn) [TMX-02-172] | AURKA, AURKB, CDK1, CDK2, CDK5, MAPK8, MAPK9, PTK2, RPS6KA1, RPS6KA3, STK33, TTK | 12 | – |
| CC(C)S(=O)(=O)c1ccccc1Nc1nc(Nc2ccc(N3CCN(CCOCCOCCNC(=O)CNc4ccc5c(c4)C(=O)N(C4CCC(=O)NC4=O)C5=O)CC3)cc2)ncc1Cl (stereo not drawn) [LT2-49, N-(2-(2-(2-(4-(4-((5-chloro-4-((2-(isopropylsulfonyl)phenyl)amino)pyrimidin-2-yl)amino)phenyl)piperazin-1-yl)ethoxy)ethoxy)ethyl)-2-((2-(2,6-dioxopiperidin-3-yl)-1,3-dioxoisoindolin-5-yl)amino)acetamide] | CDK4, AURKA, WEE1, BLK, FER, CDK6, LIMK2, AAK1, CDK5, CDK2, ITK, CDK17, LCK, PTK2B, CDK9, CDK7, CDK13, PRKAA1, CDK12, BMP2K, STK10 | 21 | CDK4, AURKA, WEE1, BLK, FER, CDK6, LIMK2, AAK1, CDK5, CDK2, ITK, CDK17, LCK, PTK2B, CDK9, CDK7, CDK13, PRKAA1, CDK12, BMP2K, and STK10 |
